Key:
hGPR40 [1] = molecular target: T1, hGPR40 (Homo sapiens, UniProt O14842); assay: GPR40 Inositol Phosphate Turnover (IP1) Assay; type: cell-based; design: expressed in transfected cells; host or cells: HEK cells stably expressing the aequorin reporter; details: HEK cells stably expressing human GPR40; 0% serum; read-out: hGPR40 IP1 EC50 (0% serum)
Description: A human GPR40 stable cell-line was generated in HEK cells stably expressing the aequorin expressing reporter.
The assay is performed in 96-well format. HEK cells stably expressing human GPR^40 are plated to be 60-80% confluent within 72 h. After 72 h, the plates are aspirated and the cells washed with inositol-free DMEM (ICN). The wash media is replaced with 150 μL of 3H-inositol labeling media (inositol-free media containing 0.4% human albumin or 0.4% mouse albumin, 1× pen/strep antibiotics, glutamine, 25 mM HEPES to which is added 3H-myo-inositol NEN #NET114A 1mCi/mL, 25 Ci/mmol diluted 1:150 in loading media with a final specific radioactivity of 1 μCi/150 μL). Alternatively, the human and mouse albumin can be added after the overnight labeling step before the addition of LiCl.
The assay is typically run the next day after 18 h labeling. On the day of the assay, 5 μL, of 300 mM LiCl is added to all wells and incubated at 37 degrees for 20 min. 0.75 μL of 200× compounds are added and incubated with the cells for 60 min at 37 degrees. The media is then aspirated off and the assay terminated with the addition of 60 nI, 10 mM formic acid. The cells are lysed for 60 min at room temperature. 15-30 nI, of lysate is mixed with 70 mL/1 mg YSi SPA beads (Amersham) in clear bottom Isoplates. The plates are shaken for 2 h at room temperature. Beads are allowed to settle and the plates are counted in the Wallac Microbeta.

hGPR40 [2] = molecular target: T1, hGPR40; assay: GPR40 FLIPR assay (agonist-induced calcium mobilization); type: cell-based; design: expressed in transfected cells; host or cells: CHO cells stably expressing NFAT BLA (beta-lactamase); details: GPR40/CHO NFAT BLA cells;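 further: calcium mobilization in the cells read as fluorescence of fluo-4 AM loaded cells on FLIPR after compound addition, cells preloaded with dye 100 min at room temperature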

T1 sequence (O14842 whole entry): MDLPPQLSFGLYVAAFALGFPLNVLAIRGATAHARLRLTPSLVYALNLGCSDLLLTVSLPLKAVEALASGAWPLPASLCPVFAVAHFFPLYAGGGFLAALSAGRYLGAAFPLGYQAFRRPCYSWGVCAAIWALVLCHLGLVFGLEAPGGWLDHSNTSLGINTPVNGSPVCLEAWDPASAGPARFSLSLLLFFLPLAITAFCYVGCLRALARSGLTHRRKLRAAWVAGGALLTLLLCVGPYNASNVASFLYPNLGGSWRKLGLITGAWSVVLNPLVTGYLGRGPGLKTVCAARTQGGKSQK

Row | SMILES | EC50 (hGPR40 [1]) | EC50 (hGPR40 [2])
1 | Cc1cc(CCCCS(C)(=O)=O)cc(C)c1-c1ccc(F)c(COc2cc3c(cn2)[C@H]2[C@@H](C3)[C@@H]2C(=O)O)c1 [Compound 19-16, (5aR,6S,6aS)-3-((4-fluoro-2′,6′-dimethyl-4′-(4-(methylsulfonyl)butyl)-[1,1′-biphenyl]-3-yl)methoxy)-5,5a,6,6a-tetrahydrocyclopropa[4,5]cyclopenta[1,2-c]pyridine-6-carboxylic acid] | 7.3 nM | 160 nM
2 | Cc1cc(CCCC(C)(C)O)cc(C)c1-c1ccc(F)c(COc2cc3c(cn2)[C@H]2[C@@H](C3)[C@@H]2C(=O)O)c1 [Compound 19-19, (5aR,6S,6aS)-3-((4-fluoro-4′-(4-hydroxy-4-methylpentyl)-2′,6′-dimethyl-[1,1′-biphenyl]-3-yl)methoxy)-5,5a,6,6a-tetrahydrocyclopropa[4,5]cyclopenta[1,2-c]pyridine-6-carboxylic acid] | 5.5 nM | 36 nM
3 | CC(C)(O)CCOc1cc(C(F)(F)F)c(-c2ccc(F)c(COc3cc4c(cn3)C3C(C4)C3C(=O)O)c2)cn1 (stereo not shown) [Compound 20-5, 3-((2-fluoro-5-(6-(3-hydroxy-3-methylbutoxy)-4-(trifluoromethyl)pyridin-3-yl)benzyl)oxy)-5,5a,6,6a-tetrahydrocyclopropa[4,5]cyclopenta[1,2-c]pyridine-6-carboxylic acid] | 15 nM | 76 nM
4 | CC(C)(O)CCOc1cc(C(F)(F)F)c(-c2cccc(COc3cc4c(cn3)[C@H]3[C@@H](C4)[C@@H]3C(=O)O)c2)cn1 [Compound 20-6, (5aR,6S,6aS)-3-((3-(6-(3-hydroxy-3-methylbutoxy)-4-(trifluoromethyl)pyridin-3-yl)benzyl)oxy)-5,5a,6,6a-tetrahydro-cyclopropa[4,5] cyclopenta[1,2-c] pyridine-6-carboxylic acid] | 4.9 nM | 19 nM
5 | Cc1nc(OC2CCC(C(C)(C)O)CC2)ccc1-c1ccc(F)c(COc2cc3c(cn2)[C@H]2[C@@H](C3)[C@@H]2C(=O)O)c1 (stereo partly drawn) [Compound 20-8, (5aR,6S,6aS)-3-((2-fluoro-5-(6-((4-(2-hydroxypropan-2-yl)cyclohexyl)oxy)-2-methyl-pyridin-3-yl)benzyl)oxy)-5,5a, 6,6a-tetrahydro-cyclopropa[4,5] cyclopenta[1,2-c] pyridine-6-carboxylic acid] | 175 nM | 99 nM
6 | CC(C)(O)CCCOc1cc(C(F)(F)F)c(-c2ccc(F)c(COc3cc4c(cn3)[C@H]3[C@@H](C4)[C@@H]3C(=O)O)c2)cn1 [Compound 21-7, 3-((2-fluoro-5-(6-((4-hydroxy-4-methylpentyl)oxy)-4-(trifluoromethyl)pyridin-3-yl)benzyl)oxy)-5,5a,6,6a-tetrahydrocyclopropa[4,5]cyclopenta[1,2-c]pyridine-6-carboxylic acid] | 6.2 nM | 11 nM
7 | CC(C)(O)CCCOc1cc(C(F)(F)F)c(-c2cccc(COc3cc4c(cn3)[C@H]3[C@@H](C4)[C@@H]3C(=O)O)c2)cn1 [Compound 21-8, (5aR,6S,6aS)-3-((3-(6-((4-hydroxy-4-methylpentyl)-oxy)-4-(trifluoromethyl)-pyridin-3-yl)benzyl)oxy)-5,5a,6,6a-tetrahydrocyclo-propa[4,5]cyclopenta [1,2-c]pyridine-6-carboxylic acid] | 6.2 nM | 15 nM
8 | Cc1cccc(C)c1-c1ccc(F)c(COc2cc3c(cn2)[C@H]2[C@@H](C3)[C@@H]2C(=O)O)c1 [Compound 22-2] | 26 nM | 49 nM
9 | O=C(O)C1C2Cc3cc(OCc4cc(-c5ccccc5C(F)(F)F)ccc4F)ncc3C21 (stereo not shown) [Compound 22-3, 3-((4-fluoro-2′-(trifluoromethyl)-[1,1′-biphenyl]-3-yl)methoxy)-5,5a,6,6a-tetrahydrocyclo-propa[4,5]cyclopenta[1,2-c]pyridine-6-carboxylic acid] | 35 nM | 36 nM
10 | O=C(O)C1C2Cc3cc(OCc4cc(-c5ccc(C(F)(F)F)cc5)ccc4F)ncc3C21 (stereo not shown) [Compound 22-4, 3-((4-fluoro-4′-(trifluoromethyl)-[1,1′-biphenyl]-3-yl)methoxy)-5,5a,6,6a-tetrahydrocyclo-propa[4,5]cyclopenta[1,2-c]pyridine-6-carboxylic acid] | 240 nM | 54 nM
11 | O=C(O)C1C2Cc3cc(OCc4cc(-c5cccc(C(F)(F)F)c5)ccc4F)ncc3C21 (stereo not shown) [Compound 22-5, 3-((4-fluoro-3′-(trifluoromethyl)-[1,1′-biphenyl]-3-yl)methoxy)-5,5a,6,6a-tetrahydrocyclo-propa[4,5]cyclopenta[1,2-c]pyridine-6-carboxylic acid] | 310 nM | 47 nM
12 | O=C(O)C1C2Cc3cc(OCc4cc(-c5c(F)cccc5C(F)(F)F)ccc4F)ncc3C21 (stereo not shown) [Compound 22-6, 3-((2′,4-difluoro-6′-(trifluoromethyl)-[1,1′-biphenyl]-3-yl)methoxy)-5,5a,6,6a-tetrahydrocyclo-propa[4,5]cyclopenta[1,2-c]pyridine-6-carboxylic acid] | 100 nM | 87 nM
13 | O=C(O)C1C2Cc3cc(OCc4cc(-c5cc(Cl)cc(C(F)(F)F)c5)ccc4F)ncc3C21 (stereo not shown) [Compound 22-7, 3-((3′-chloro-4-fluoro-5′-(trifluoromethyl)-[1,1′-biphenyl]-3-yl)methoxy)-5,5a,6,6a-tetrahydrocyclo-propa[4,5]cyclopenta[1,2-c]pyridine-6-carboxylic acid] | 400 nM | 67 nM
14 | O=C(O)C1C2Cc3cc(OCc4cc(-c5cccnc5C(F)(F)F)ccc4F)ncc3C21 (stereo not shown) [Compound 22-8, 3-((2-fluoro-5-(2-(trifluoromethyl)pyridin-3-yl)benzyl)oxy)-5,5a,6,6a-tetrahydrocyclopenta[4,5] cyclopenta[1,2-c]pyridine-6-carboxylic acid] | 75 nM | 48 nM
15 | O=C(O)C1C2Cc3cc(OCc4cc(-c5ncccc5C(F)(F)F)ccc4F)ncc3C21 (stereo not shown) [Compound 22-9, 3-((2-fluoro-5-(3-(trifluoromethyl)pyridin-2-yl)benzyl)oxy)-5,5a,6,6a-tetrahydrocyclopropa[4,5] cyclopenta[1,2-c]pyridine-6-carboxylic acid] | 850 nM | 95 nM
16 | Cc1cc(OCCCS(C)(=O)=O)ncc1-c1ccc(F)c(COc2cc3c(cn2)[C@H]2[C@@H](C3)[C@@H]2C(=O)O)c1 [Compound 23-8, 4-{2-Fluoro-5-[6-(3-methanesulfonyl-propoxy)-4-methyl-pyridin-3-yl]-benzyloxy}-1,1a,6,6a-tetrahydro-3-aza-cyclopropa[a]indene-1-carboxylic acid] | 4.8 nM | 26 nM
17 | Cc1nc(OCCCS(C)(=O)=O)ccc1-c1ccc(F)c(COc2cc3c(cn2)[C@H]2[C@@H](C3)[C@@H]2C(=O)O)c1 [Compound 23-10, (5aR,6S,6aS)-3-((2-fluoro-5-(2-methyl-6-(3-(methylsulfonyl)propoxy)pyridin-3-yl)benzyl)oxy)-5,5a,6,6a-tetrahydro-cyclopropa[4,5] cyclopenta[1,2-c] pyridine-6-carboxylic acid] | 15 nM | 46 nM
18 | Cc1cc(OCCCS(C)(=O)=O)nc(C)c1-c1cccc(COc2cc3c(cn2)[C@H]2[C@@H](C3)[C@@H]2C(=O)O)c1 [Compound 23-11, (5aR,6S,6aS)-3-((3-(2,4-dimethyl-6-(3-(methylsulfonyl)propoxy)pyridin-3-yl)benzyl)oxy)-5,5a, 6,6a-tetrahydrocyclo propa[4,5]cyclopenta [1,2-c]pyridine-6-carboxylic acid] | 25 nM | 50 nM
19 | Cc1cc(OCCCS(C)(=O)=O)nc(C)c1-c1ccc(F)c(COc2cc3c(cn2)[C@H]2[C@@H](C3)[C@@H]2C(=O)O)c1 [Compound 23-12, (5aR,6S,6aS)-3-((5-(2,4-dimethyl-6-(3-(methylsulfonyl)propoxy)pyridin-3-yl)-2-fluorobenzyl)oxy)-5,5a,6,6a-tetrahydrocyclopropa [4,5]cyclopenta[1,2-c] pyridine-6-carboxylic acid] | 12 nM | 35 nM
20 | Cc1nc(OCCCS(C)(=O)=O)nc(C)c1-c1ccc(F)c(COc2cc3c(cn2)C2C(C3)C2C(=O)O)c1 (stereo not shown) [Compound 23-13, 3-((5-(4,6-dimethyl-2-(3-(methylsulfonyl)propoxy)pyrimidin-5-yl)-2-fluorobenzyl)-oxy)-5,5a,6,6a-tetrahydrocyclopropa [4,5]cyclopenta[1,2-c]pyridine-6-carboxylic acid] | 110 nM | 77 nM
21 | Cc1nc(OCCCS(C)(=O)=O)sc1-c1ccc(F)c(COc2cc3c(cn2)C2C(C3)C2C(=O)O)c1 (stereo not shown) [Compound 23-14, 3-((2-fluoro-5-(4-methyl-2-(3-(methylsulfonyl)-propoxy)thiazol-5-yl)-benzyl)oxy)-5,5a,6,6a-tetrahydrocyclopropa [4,5]cyclopenta[1,2-c] pyridine-6-carboxylic acid] | 34 nM | 18 nM
22 | Cc1nc(OCCCN2CCCC2=O)ccc1-c1ccc(F)c(COc2cc3c(cn2)C2C(C3)C2C(=O)O)c1 (stereo not shown) [Compound 23-15, 3-((2-fluoro-5-(2-methyl-6-(3-(2-oxopyrrolidin-1-yl)propoxy)pyridin-3-yl)benzyl)oxy)-5,5a,6,6a-tetahydrocyclopropa[4,5] cyclopenta[1,2-c]pyridine-6-carboxylic acid] | 27 nM | 38 nM
23 | CS(=O)(=O)CCCOc1cc(OC(F)F)c(-c2ccc(F)c(COc3cc4c(cn3)[C@H]3[C@@H](C4)[C@@H]3C(=O)O)c2)cn1 [Compound 23-17, (5aR,6S,6aS)-3-((5-(4-(difluoro-methoxy)-6-(3-(methylsulfonyl)propoxy)pyridin-3-yl)-2-fluorobenzyl)-oxy)-5,5a,6,6a-tetrahydrocyclopropa [4,5]cyclopenta[1,2-c] pyridine-6-carboxylic acid] | 82 nM | 58 nM

— US20140045746A1 (Merck Sharp & Dohme Corp., priority 2012, published 2014)
